Assay [1] has as its system E. coli MC1061 containing pGG75. As to the kind of experiment: MIC (LD 90) of maximally induced tetC (plasmid pGG75). In kind it is cell-based. To be noted: Escherichia coli, read-out: MIC (LD 90) of Maximally Induced tetC, pGG75. On the procedure:
(§1) E. coli MC1061 containing either pGG57, pCBSal or pGG75 were used to determine the MIC (LD 90) for tetracycline as well as six tetracycline analogs. […] MIC studies were performed in the presence of 0.01 mM IPTG for E. coli MC1061 containing pGG57. […] All of these MIC studies were done in duplicate.

The test system of assay [2] is strain KB4. As to the kind of experiment: microbe, parasite or virus in culture. The conditions noted are these: Escherichia coli, read-out: tetracycline resistance conferred.
The subject of assay [3] is strain KB3ind. The assay is classed as cell-based, E. coli. The conditions noted are these: strain KB3ind; plate assay (plate or liquid assay). On the procedure: (§2) To detect tetracyclines, a plate assay is developed that is similar to one described previously (11). Cells are grown in Luria Broth (adjusted with NaOH to pH 7.5) with 25 μg/ml of kanamycin to a cell density of 0.5 absorbance units (600 nm). A 25 ml sample of the culture is harvested by centrifugation and resuspended in 1 ml of broth. The cells are mixed with 25 ml of soft agar (1%, wt/vol) and poured onto 100 ml of LB (pH 7.5)+ kanamycin, within a 22 cm^2 NUNC plate (Corning). Samples are applied by spotting from 2 to 15 μl, or by applying a disc impregnated with a compound, and the plate is incubated for 3-4 hours at 37° C. The plates are overlaid with a solution containing 13.5 mg of 6-bromo-2-naphthyl-β-D-galactopyranoside side and 86.5 mg of fast blue RR (Sigma) dissolved in 2 ml of dimethylsulfoxide, to which 25 ml of soft agar is added. β-Galactosidase is detected by the presence of a purple spot.

In assay [4] the test system is E. coli MC1061 containing pGG57. As to the kind of experiment: microbe, parasite or virus in culture. In kind it is cell-based. The conditions noted are these: Escherichia coli. How it is done:
as §1

The next assay has as its system strain KB5. As to the kind of experiment: MIC of strain KB5. In kind it is cell-based, E. coli. The conditions noted are these: Escherichia coli.
Assay [5] relates to strain MC1061 with plasmid pGG58. As to the kind of experiment: microbe, parasite or virus in culture. To be noted: Escherichia coli, read-out: tetracycline resistance.
Assay [6] has as its system Tn10 derivative of strain KB3ind. As to the kind of experiment: Induction in liquid culture, Tn10 strain. The conditions noted are these: Escherichia coli, read-out: concentration for full induction of β-galactosidase, Tn10 strain, liquid culture. The assay is classed as cell-based, E. coli. How it is done: (§3) Cells are added to tetracycline to the final concentration indicated as described in FIG. 7. The sensitive strain is the tetracycline screening organism KB3ind, which induces fully when grown in the presence of 5-10 ng/ml of tetracycline. In contrast, the strain containing the Tn10 element, conferring strong tetracycline resistance, induces fully when the concentration of tetracycline is above 1 μg/ml.
(§4) Alternatively, a liquid assay is also used. Cells are grown in LB (pH 7.5), and tetracycline-containing samples are added to aliquots when the density of the culture is 0.1 OD units. After 3-4 generations of the cells, each aliquot is measured for β-galactosidase activity as described (10, 12) and Miller Units (12) are determined. […] For both the plate and liquid assays, this strain is more sensitive than a previously reported screening organism (11).

Assay [7] concerns tetracycline efflux pump (strain KB4 or KB5). Put plainly: Inhibition Assay, plate assay (agar with 5 ng/ml of tetracycline). In kind it is cell-based, E. coli. The conditions noted are these: strain KB4 or KB5, spotted on plate. On the procedure: as §2
Two assays are developed for detecting inhibitors of the tetA gene product (using strain KB5), or the tetK gene product (using strain KB4). In the Inhibition Assay, cells of strain KB4 or KB5 are treated as described in the tetracycline screen above, except that the agar medium contains 5 ng/ml of tetracycline. Alternatively a Liquid Assay is also developed. Cells are first grown in LB (pH 7.5). Then cells are shifted to medium containing 5 ng/ml of tetracycline, and tetracycline-containing samples are added to aliquots. Cells are then incubated and assayed as described for the Tetracycline Assay. […] However, the intracellular concentration is reduced in tetracycline resistant strains due to the action of the efflux pump, so more tetracycline would be required in the medium to accumulate sufficient tetracycline inside the cell to induce. The Inhibition Assay is designed to detect compounds that cause β-galactosidase induction in the presence of sub-inducing levels of tetracycline for a resistant strain.

Assay [8] deals with Tn10 derivative of KB3ind. As to the kind of experiment: microbe, parasite or virus in culture. To be noted: Escherichia coli, read-out: tetracycline resistance.
Assay [9] deals with strain KB4. Put plainly: Induction in liquid culture, strain KB4. In kind it is cell-based, E. coli. To be noted: Escherichia coli, read-out: concentration for full induction of β-galactosidase. On the procedure:
as §3, §4

Assay [10] deals with E. coli MC1061 containing pCBSal. Put plainly: MIC (LD 90) of maximally induced tetA (plasmid pCBSal). The assay is classed as cell-based. The conditions noted are these: Escherichia coli, read-out: MIC (LD 90) of Maximally Induced tetA, pCBSal. How it is done: as §1
Assay [11] concerns strains containing pCB258. Put plainly: microbe, parasite or virus in culture. To be noted: Escherichia coli.
Assay [12] relates to strain KB3ind. As to the kind of experiment: Tetracycline liquid assay (β-galactosidase, Miller Units). In kind it is cell-based, E. coli. To be noted: Escherichia coli. How it is done: as §4

The source of these data is patent US5789188A, “Tetracycline-efflux pump inhibitor screening methods” (priority 1996, dated 1998).

In brackets after ≈: the same amount, converted by molar mass. Where two headings read alike, the source gives them in different places. Bounds are passed on as bounds.

On to `CN(C)C1C(=O)C(C(N)=O)=C(O)C2(O)C(=O)C3=C(O)c4c(O)cccc4C(C)(O)C3CC12` (centres unmarked) [Tetracycline], for which the MIC in assay [1] was 100 µg/mL (≈ 225 µM); in the assay with strain KB4 [2] it was less than 10 µg/mL; in [4] (read-out: MIC (LD 90) of Maximally Induced tetK, pGG57), 125 µg/mL (≈ 281 µM); in assay [4] (read-out: tetracycline resistance conferred), 25 µg/mL (≈ 56.3 µM); in the assay on strain KB5 it was approximately 10 µg/mL; in assay [5] it was 15 µg/mL (≈ 33.8 µM). Further, the MIC was more than 100 µg/mL in assay [8]; 150 µg/mL (≈ 338 µM) in assay [10]; 50 µg/mL (≈ 113 µM) in assay [11] (PCB258); 40 µg/mL (≈ 90 µM) in assay [11] (PCB258, read-out: tetracycline resistance conferred). Also, the “response in the Tetracycline Assay (β-galactosidase induction)” value with strain KB3ind [3] is “capable of detecting”. The EC (full induction) is more than 1 µg/mL in assay [6]; 0.03 µg/mL in the assay on strain KB4 [9]; 0.005 to 0.01 µg/mL with strain KB3ind [12] (liquid culture, read-out: concentration for full induction of β-galactosidase). For the same molecule, the “Tetracycline Detection, amount detected in Inhibition plate assay” value in [7] is not below 1 ng; in [7] (listed as tetracycline), 1 ng. Also, the minimal effective concentration with strain KB3ind [12] (read-out: lowest concentration detected in liquid assay) worked out at 0.0001 µg/mL.
